Broadly, the inhibition is the change of the read-out against control, counted positive when it falls.

Structures can show the parent of a compound that is named as a salt.

Consider two compounds from ChEMBL document CHEMBL4265942, “Four new antitumor metabolites isolated from a mutant 3-f-31 strain derived from Penicillium purpurogenum G59” (Eur J Med Chem, 2018).

Common to all, as to format: functional
Assay [1] deals with A549. Put plainly: Antiproliferative activity against human A549 cells assessed as inhibition of cell growth at 1 uM after 72 hrs by sulforhodamine B assay relative to control. Conditions: A549, 72 h.
Assay [2] concerns HeLa. Put plainly: Antiproliferative activity against human HeLa cells assessed as inhibition of cell growth at 1 uM after 72 hrs by sulforhodamine B assay relative to control. Background: In SRB staining, fixed cells bind dye roughly in proportion to their protein.
Assay [3] concerns MCF7. Put plainly: Antiproliferative activity against human MCF7 cells assessed as inhibition of cell growth at 1 uM after 72 hrs by sulforhodamine B assay relative to control. Conditions: MCF7, 72 h.
Assay [4] deals with HCT-116. Briefly: Antiproliferative activity against human HCT116 cells assessed as inhibition of cell growth at 1 uM after 72 hrs by sulforhodamine B assay relative to control. Conditions: HCT-116, 72 h.
For assay [5], the system named is HepG2. Put plainly: Antiproliferative activity against human HepG2 cells assessed as inhibition of cell growth at 1 uM after 72 hrs by sulforhodamine B assay relative to control. Particulars: HepG2, 72 h.
For assay [6], the system named is NCI-H1975. Briefly: Antiproliferative activity against human NCI-H1975 cells assessed as inhibition of cell growth at 1 uM after 72 hrs by sulforhodamine B assay relative to control. Particulars: NCI-H1975, 72 h.
The subject of assay [7] is HL-60. Briefly: Antiproliferative activity against human HL60 cells assessed as inhibition of cell growth at 1 uM after 72 hrs by MTT assay relative to control. Conditions: HL-60, 72 h.
In assay [8] the test system is K562. Briefly: Antiproliferative activity against human K562 cells assessed as inhibition of cell growth at 1 uM after 72 hrs by MTT assay relative to control. Conditions: K562, 72 h. Background: Formazan colour is commonly taken as a measure of viable cells.
Assay [9] concerns LS180. Briefly: Antiproliferative activity against human LS180 cells assessed as inhibition of cell growth at 1 uM after 72 hrs by sulforhodamine B assay relative to control. Conditions: LS180, 72 h.
Assay [10] relates to SW480. Put plainly: Antiproliferative activity against human SW480 cells assessed as inhibition of cell growth at 1 uM after 72 hrs by sulforhodamine B assay relative to control. Particulars: SW480, 72 h.
Assay [11] has as its system HT-29. Put plainly: Antiproliferative activity against human HT-29 cells assessed as inhibition of cell growth at 1 uM after 72 hrs by sulforhodamine B assay relative to control. Conditions: HT-29, 72 h.
Assay [12] has as its system PC-3. Briefly: Antiproliferative activity against human PC3 cells assessed as inhibition of cell growth at 1 uM after 72 hrs by sulforhodamine B assay relative to control. Conditions: PC-3, 72 h.
Assay [13] has as its system BXPC-3. Put plainly: Antiproliferative activity against human BxPC3 cells assessed as inhibition of cell growth at 1 uM after 72 hrs by sulforhodamine B assay relative to control. Conditions: BXPC-3, 72 h.
Assay [14] deals with PANC-1. Put plainly: Antiproliferative activity against human PANC1 cells assessed as inhibition of cell growth at 1 uM after 72 hrs by sulforhodamine B assay relative to control. Conditions: PANC-1, 72 h.
Assay [15] relates to A549. Put plainly: Antiproliferative activity against human A549 cells assessed as inhibition of cell growth at 100 uM after 72 hrs by sulforhodamine B assay relative to control. Conditions: A549, 72 h.
Assay [16] relates to HeLa. Briefly: Antiproliferative activity against human HeLa cells assessed as inhibition of cell growth at 100 uM after 72 hrs by sulforhodamine B assay relative to control.
Assay [17] concerns MCF7. Put plainly: Antiproliferative activity against human MCF7 cells assessed as inhibition of cell growth at 100 uM after 72 hrs by sulforhodamine B assay relative to control. Conditions: MCF7, 72 h.
The test system of assay [18] is HCT-116. Put plainly: Antiproliferative activity against human HCT116 cells assessed as inhibition of cell growth at 100 uM after 72 hrs by sulforhodamine B assay relative to control. Particulars: HCT-116, 72 h.
For assay [19], the system named is HepG2. Briefly: Antiproliferative activity against human HepG2 cells assessed as inhibition of cell growth at 100 uM after 72 hrs by sulforhodamine B assay relative to control. Particulars: HepG2, 72 h.
The subject of assay [20] is NCI-H1975. Briefly: Antiproliferative activity against human NCI-H1975 cells assessed as inhibition of cell growth at 100 uM after 72 hrs by sulforhodamine B assay relative to control. Particulars: NCI-H1975, 72 h.
The subject of assay [21] is HL-60. Put plainly: Antiproliferative activity against human HL60 cells assessed as inhibition of cell growth at 100 uM after 72 hrs by MTT assay relative to control. Conditions: HL-60, 72 h.
Assay [22] concerns K562. Briefly: Antiproliferative activity against human K562 cells assessed as inhibition of cell growth at 100 uM after 72 hrs by MTT assay relative to control. Particulars: K562, 72 h.
In assay [23] the test system is LS180. Briefly: Antiproliferative activity against human LS180 cells assessed as inhibition of cell growth at 100 uM after 72 hrs by sulforhodamine B assay relative to control. Conditions: LS180, 72 h.
For assay [24], the system named is SW480. Put plainly: Antiproliferative activity against human SW480 cells assessed as inhibition of cell growth at 100 uM after 72 hrs by sulforhodamine B assay relative to control. Conditions: SW480, 72 h.
The subject of assay [25] is HT-29. Put plainly: Antiproliferative activity against human HT-29 cells assessed as inhibition of cell growth at 100 uM after 72 hrs by sulforhodamine B assay relative to control. Particulars: HT-29, 72 h.
Assay [26] concerns PC-3. Briefly: Antiproliferative activity against human PC3 cells assessed as inhibition of cell growth at 100 uM after 72 hrs by sulforhodamine B assay relative to control. Conditions: PC-3, 72 h.
Assay [27] concerns BXPC-3. Put plainly: Antiproliferative activity against human BxPC3 cells assessed as inhibition of cell growth at 100 uM after 72 hrs by sulforhodamine B assay relative to control. Particulars: BXPC-3, 72 h.
Assay [28] concerns PANC-1. Briefly: Antiproliferative activity against human PANC1 cells assessed as inhibition of cell growth at 100 uM after 72 hrs by sulforhodamine B assay relative to control. Particulars: PANC-1, 72 h.

As for `COc1cccc2c1C(=O)c1c(O)c3c(c(O)c1C2=O)C[C@@](O)(C(=O)CO)C[C@@H]3O[C@H]1C[C@H](N)[C@H](O)[C@H](C)O1` [DOXORUBICIN HYDROCHLORIDE], the inhibition at 1 µM with A549 [1], in the assay on HeLa [2], with MCF7 [3], in the assay with HCT-116 [4], with HepG2 [5] and with NCI-H1975 [6] was 70 to 98% each time. For the same compound, the inhibition at 1 µM in the assay with HL-60 [7], in the assay on K562 [8], with LS180 [9], in the assay with SW480 [10], with HT-29 [11] and with PC-3 [12] was 70 to 98% in each case. Besides, the inhibition at 1 µM in the assay on BXPC-3 [13] and in the assay on PANC-1 [14] was 70 to 98% each time.

Regarding `O=c1[nH]cc(F)c(=O)[nH]1` [FLUOROURACIL], the inhibition at 100 µM with A549 [15], with HeLa [16], in the assay with MCF7 [17], in the assay on HCT-116 [18], with HepG2 [19] and in the assay on NCI-H1975 [20] was 41 to 95% in each case. In addition, the inhibition at 100 µM in the assay on HL-60 [21], in the assay with K562 [22], with LS180 [23], in the assay with SW480 [24], with HT-29 [25] and with PC-3 [26] was 41 to 95% in each case. Further, the inhibition at 100 µM in the assay with BXPC-3 [27] and with PANC-1 [28] was 41 to 95% each time.
